BindingDB's records for PubMed 10869410 (Centre De Recherches De Croissy, 2000)
Values joined by “and” are separate entries in the source; they are usually repeats but may differ in a detail not shown here. Identical values can stand only once.

Tests used:
[1] = biological target: 5-hydroxytryptamine receptor 2A (Homo sapiens, UniProt P28223)
[2] = biological target: 5-hydroxytryptamine receptor 2C (Homo sapiens, UniProt P28335)
[3] = biological target: D(1B) dopamine receptor (Homo sapiens, UniProt P21918)
Sequence of D(1B) dopamine receptor (P21918 whole entry): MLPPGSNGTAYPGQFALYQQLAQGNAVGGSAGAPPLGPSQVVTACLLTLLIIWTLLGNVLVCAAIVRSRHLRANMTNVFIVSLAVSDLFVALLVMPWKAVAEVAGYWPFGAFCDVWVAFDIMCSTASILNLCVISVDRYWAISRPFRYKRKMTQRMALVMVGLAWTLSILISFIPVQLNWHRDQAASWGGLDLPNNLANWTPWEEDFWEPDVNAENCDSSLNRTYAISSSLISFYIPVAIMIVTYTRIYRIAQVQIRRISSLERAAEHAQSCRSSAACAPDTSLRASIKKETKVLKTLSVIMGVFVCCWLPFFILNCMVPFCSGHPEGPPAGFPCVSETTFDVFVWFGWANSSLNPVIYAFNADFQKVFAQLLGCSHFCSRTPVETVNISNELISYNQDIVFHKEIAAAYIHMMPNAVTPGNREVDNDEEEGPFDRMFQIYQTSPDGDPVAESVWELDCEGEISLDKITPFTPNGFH

[4] = biological target: 5-hydroxytryptamine receptor 1B (Homo sapiens, UniProt P28222)
Sequence of 5-hydroxytryptamine receptor 1B (Homo sapiens, UniProt P28222) (P28222 whole entry): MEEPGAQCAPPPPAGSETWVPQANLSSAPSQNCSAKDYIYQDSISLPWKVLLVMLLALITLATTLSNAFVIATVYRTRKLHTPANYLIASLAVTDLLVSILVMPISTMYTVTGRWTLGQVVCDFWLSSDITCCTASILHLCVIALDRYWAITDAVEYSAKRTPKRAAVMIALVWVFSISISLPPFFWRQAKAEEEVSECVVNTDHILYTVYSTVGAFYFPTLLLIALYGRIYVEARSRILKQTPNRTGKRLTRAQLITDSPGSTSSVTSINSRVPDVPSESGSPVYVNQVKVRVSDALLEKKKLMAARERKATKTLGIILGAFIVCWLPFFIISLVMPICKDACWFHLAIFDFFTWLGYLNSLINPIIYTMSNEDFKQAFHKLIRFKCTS

[5] = biological target: D(1A) dopamine receptor (Homo sapiens, UniProt P21728)
[6] = biological target: 5-hydroxytryptamine receptor 1D (Homo sapiens, UniProt P28221)
Sequence of 5-hydroxytryptamine receptor 1D (P28221 whole entry): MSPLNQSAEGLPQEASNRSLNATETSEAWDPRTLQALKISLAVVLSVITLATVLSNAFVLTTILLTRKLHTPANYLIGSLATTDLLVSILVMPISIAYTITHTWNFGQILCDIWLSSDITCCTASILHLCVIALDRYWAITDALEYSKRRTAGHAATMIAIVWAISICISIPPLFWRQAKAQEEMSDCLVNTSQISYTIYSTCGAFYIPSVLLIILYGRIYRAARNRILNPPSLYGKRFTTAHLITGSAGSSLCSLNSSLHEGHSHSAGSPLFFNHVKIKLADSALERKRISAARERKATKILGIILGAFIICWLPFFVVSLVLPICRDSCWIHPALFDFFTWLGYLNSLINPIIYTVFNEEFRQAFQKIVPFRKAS

[7] = biological target: D(3) dopamine receptor (Homo sapiens, UniProt P35462)
Sequence of D(3) dopamine receptor (P35462 as listed by the source): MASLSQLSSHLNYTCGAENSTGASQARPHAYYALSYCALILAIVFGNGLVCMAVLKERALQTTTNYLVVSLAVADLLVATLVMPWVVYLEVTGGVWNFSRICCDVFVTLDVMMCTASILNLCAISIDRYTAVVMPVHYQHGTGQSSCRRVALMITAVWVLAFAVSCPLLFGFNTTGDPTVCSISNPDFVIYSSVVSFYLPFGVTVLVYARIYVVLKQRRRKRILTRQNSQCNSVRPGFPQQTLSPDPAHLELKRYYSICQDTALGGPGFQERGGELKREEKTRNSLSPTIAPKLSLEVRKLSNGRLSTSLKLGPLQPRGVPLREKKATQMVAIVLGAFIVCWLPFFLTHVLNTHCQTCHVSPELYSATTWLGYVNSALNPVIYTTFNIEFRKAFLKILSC

[8] = biological target: D(2) dopamine receptor (Rattus norvegicus, UniProt P61169)
Sequence of D(2) dopamine receptor (Rattus norvegicus, UniProt P61169) (P61169 whole entry): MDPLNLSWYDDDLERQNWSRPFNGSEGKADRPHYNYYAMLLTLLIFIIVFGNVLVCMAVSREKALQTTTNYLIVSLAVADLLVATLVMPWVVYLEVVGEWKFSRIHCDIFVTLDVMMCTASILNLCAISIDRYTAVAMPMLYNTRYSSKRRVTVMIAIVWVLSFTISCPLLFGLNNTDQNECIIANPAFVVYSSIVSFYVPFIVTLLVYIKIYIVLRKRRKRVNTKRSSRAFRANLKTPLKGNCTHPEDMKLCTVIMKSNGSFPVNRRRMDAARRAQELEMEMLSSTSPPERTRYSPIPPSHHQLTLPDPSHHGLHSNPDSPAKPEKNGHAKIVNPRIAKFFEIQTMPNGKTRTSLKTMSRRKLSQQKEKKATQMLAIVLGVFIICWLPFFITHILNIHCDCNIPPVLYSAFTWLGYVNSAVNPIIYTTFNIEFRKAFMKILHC

[9] = biological target: Sigma non-opioid intracellular receptor 1 (Cavia porcellus, UniProt Q60492)
Sequence of Sigma non-opioid intracellular receptor 1 (Q60492 whole entry): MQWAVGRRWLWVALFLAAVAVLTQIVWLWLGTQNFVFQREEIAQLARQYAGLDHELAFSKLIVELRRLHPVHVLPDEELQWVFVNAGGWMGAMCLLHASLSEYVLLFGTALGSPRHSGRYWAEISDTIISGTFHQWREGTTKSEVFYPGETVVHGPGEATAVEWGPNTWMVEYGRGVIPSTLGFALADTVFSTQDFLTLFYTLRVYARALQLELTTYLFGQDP

[10] = biological target: 5-hydroxytryptamine receptor 2A (Rattus norvegicus, UniProt P14842)
Sequence of 5-hydroxytryptamine receptor 2A (Rattus norvegicus, UniProt P14842) (P14842 whole entry): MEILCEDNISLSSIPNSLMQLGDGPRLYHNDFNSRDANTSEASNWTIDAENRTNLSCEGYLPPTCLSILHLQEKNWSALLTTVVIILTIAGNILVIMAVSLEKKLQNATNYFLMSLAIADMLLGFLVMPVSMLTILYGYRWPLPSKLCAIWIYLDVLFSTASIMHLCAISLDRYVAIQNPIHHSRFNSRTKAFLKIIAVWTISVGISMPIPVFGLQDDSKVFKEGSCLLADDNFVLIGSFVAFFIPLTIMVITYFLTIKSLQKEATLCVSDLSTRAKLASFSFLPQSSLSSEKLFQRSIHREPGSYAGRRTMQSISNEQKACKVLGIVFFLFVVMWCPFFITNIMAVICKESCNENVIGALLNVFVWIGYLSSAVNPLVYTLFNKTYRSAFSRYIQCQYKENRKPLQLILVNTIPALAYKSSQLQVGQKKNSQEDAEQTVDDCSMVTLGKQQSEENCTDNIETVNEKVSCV

[11] = biological target: 5-hydroxytryptamine receptor 2B (Homo sapiens, UniProt P41595)
Sequence of 5-hydroxytryptamine receptor 2B (P41595 whole entry): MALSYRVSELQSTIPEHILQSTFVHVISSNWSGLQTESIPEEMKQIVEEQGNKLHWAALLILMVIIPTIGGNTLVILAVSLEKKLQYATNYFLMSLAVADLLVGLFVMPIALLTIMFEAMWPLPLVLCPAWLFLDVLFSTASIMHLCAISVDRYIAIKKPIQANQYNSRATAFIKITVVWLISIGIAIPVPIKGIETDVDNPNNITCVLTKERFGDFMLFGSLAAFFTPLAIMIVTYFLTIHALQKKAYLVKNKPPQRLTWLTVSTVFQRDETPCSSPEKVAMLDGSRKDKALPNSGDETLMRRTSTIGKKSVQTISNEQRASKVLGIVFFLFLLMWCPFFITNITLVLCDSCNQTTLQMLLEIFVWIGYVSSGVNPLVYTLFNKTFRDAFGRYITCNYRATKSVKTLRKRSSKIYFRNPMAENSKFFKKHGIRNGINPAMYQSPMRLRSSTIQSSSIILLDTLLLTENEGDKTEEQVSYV

[12] = biological target: T1, Alpha-2A adrenergic receptor [16-465] (Rattus norvegicus, UniProt P22909)
T1 construct: 16-465
T1 sequence (P22909 whole entry): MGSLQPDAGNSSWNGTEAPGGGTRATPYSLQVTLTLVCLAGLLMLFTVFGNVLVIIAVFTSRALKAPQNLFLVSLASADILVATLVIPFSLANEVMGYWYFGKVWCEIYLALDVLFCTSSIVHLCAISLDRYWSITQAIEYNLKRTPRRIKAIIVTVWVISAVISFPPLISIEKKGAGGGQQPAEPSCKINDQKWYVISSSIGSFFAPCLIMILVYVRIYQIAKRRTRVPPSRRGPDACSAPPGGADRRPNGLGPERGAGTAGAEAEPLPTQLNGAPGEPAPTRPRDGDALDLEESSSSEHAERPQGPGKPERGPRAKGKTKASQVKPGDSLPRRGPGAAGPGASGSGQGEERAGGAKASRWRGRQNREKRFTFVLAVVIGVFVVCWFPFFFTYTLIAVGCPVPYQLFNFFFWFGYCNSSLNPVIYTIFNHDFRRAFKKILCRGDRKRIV

[13] = biological target: D(2) dopamine receptor (Homo sapiens, UniProt P14416)
Sequence of D(2) dopamine receptor (Homo sapiens, UniProt P14416) (P14416 whole entry): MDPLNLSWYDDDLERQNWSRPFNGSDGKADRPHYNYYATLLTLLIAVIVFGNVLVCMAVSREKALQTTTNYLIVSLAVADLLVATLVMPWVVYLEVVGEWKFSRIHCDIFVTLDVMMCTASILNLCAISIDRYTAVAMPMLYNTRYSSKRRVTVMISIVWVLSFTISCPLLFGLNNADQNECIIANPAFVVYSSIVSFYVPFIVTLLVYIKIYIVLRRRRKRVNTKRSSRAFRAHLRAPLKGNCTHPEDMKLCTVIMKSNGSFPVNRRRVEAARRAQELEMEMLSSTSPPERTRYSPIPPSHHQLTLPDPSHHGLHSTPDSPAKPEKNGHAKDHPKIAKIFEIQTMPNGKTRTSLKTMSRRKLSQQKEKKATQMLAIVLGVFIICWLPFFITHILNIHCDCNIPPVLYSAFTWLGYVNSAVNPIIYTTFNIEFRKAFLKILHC

[14] = biological target: 5-hydroxytryptamine receptor 2C (Sus scrofa, UniProt G7ZKZ7)
Sequence of 5-hydroxytryptamine receptor 2C (Sus scrofa, UniProt G7ZKZ7) (G7ZKZ7 whole entry): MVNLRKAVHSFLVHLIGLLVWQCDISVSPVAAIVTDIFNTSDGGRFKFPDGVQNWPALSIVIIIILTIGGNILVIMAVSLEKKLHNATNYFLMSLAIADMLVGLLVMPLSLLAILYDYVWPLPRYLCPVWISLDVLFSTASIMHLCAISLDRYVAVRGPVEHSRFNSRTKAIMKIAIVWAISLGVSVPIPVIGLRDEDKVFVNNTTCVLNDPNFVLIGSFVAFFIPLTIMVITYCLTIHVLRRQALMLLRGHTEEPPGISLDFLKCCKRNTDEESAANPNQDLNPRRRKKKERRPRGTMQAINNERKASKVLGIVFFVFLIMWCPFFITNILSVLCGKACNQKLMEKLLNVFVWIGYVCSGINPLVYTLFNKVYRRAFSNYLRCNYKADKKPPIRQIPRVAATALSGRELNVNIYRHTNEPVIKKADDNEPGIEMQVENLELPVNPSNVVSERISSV

[15] = biological target: T2, D(4) dopamine receptor (Homo sapiens, UniProt P21917)
T2 sequence (P21917 whole entry): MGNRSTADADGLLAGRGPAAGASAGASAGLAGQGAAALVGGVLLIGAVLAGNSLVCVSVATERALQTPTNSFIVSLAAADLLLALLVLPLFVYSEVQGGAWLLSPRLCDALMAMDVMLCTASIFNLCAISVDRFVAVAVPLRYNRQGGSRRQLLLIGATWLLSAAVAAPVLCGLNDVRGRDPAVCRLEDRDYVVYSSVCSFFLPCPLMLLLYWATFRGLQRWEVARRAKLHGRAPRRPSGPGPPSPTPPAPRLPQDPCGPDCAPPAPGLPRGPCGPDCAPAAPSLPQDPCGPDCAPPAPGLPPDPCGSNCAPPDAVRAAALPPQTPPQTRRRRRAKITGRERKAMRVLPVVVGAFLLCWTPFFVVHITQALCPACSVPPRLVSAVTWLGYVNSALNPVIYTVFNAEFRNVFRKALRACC

[16] = biological target: T3, Alpha-1A adrenergic receptor (Rattus norvegicus, UniProt P43140)
T3 sequence (P43140 whole entry): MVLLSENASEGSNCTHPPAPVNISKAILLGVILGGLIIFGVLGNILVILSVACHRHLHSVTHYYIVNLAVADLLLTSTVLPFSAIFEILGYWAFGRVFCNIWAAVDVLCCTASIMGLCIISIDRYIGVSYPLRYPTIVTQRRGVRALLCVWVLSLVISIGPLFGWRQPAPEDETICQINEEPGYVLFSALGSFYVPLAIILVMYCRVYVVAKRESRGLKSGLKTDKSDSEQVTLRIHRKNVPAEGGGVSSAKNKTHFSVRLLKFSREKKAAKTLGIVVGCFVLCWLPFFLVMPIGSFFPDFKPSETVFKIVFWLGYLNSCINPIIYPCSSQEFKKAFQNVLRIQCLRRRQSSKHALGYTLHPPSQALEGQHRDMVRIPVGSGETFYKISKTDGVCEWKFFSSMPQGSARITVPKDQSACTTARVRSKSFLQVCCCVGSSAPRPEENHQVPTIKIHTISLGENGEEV

[17] = biological target: T4, 5-hydroxytryptamine receptor 1A (Rattus norvegicus, UniProt P19327)
T4 sequence (P19327 whole entry): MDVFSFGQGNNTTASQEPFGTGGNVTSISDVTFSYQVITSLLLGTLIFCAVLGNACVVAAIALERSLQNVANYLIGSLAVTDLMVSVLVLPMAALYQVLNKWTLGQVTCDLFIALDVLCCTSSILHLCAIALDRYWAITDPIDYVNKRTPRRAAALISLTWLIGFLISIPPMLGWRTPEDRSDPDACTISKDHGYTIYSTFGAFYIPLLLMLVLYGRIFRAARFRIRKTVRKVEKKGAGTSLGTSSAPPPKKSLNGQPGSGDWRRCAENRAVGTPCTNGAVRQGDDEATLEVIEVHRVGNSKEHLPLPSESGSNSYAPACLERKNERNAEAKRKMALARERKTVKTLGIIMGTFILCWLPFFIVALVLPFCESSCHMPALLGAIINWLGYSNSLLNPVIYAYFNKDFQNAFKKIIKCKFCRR

[18] = biological target: 5-hydroxytryptamine receptor 1B (Cavia porcellus, UniProt O08892)
[19] = biological target: 5-hydroxytryptamine receptor 1A (Homo sapiens, UniProt P08908)
[20] = biological target: 5-hydroxytryptamine receptor 3A (Homo sapiens, UniProt P46098)
[21] = biological target: Muscarinic acetylcholine receptor M1 (Homo sapiens, UniProt P11229)
[22] = biological target: D(1A) dopamine receptor (Rattus norvegicus, UniProt P18901)

Sequence of 5-hydroxytryptamine receptor 2A (Homo sapiens, UniProt P28223) (P28223 whole entry): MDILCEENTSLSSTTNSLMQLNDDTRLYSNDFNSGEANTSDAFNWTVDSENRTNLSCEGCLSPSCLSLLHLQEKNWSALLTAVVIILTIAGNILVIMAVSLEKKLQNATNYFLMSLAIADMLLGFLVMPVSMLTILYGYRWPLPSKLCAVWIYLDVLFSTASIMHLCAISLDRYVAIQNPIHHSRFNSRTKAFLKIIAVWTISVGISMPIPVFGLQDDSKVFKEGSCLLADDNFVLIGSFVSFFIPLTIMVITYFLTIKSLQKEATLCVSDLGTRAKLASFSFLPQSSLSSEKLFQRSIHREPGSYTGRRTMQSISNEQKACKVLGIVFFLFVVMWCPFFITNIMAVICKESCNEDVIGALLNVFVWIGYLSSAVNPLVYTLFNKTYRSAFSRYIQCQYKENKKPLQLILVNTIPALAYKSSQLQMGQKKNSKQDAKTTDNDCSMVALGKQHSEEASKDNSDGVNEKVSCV

SMILES | Ki [1] | Ki [2] | Ki [3] | Ki [4] | Ki [5] | Ki [6] | Ki [7] | Ki [8] | Ki [9] | Ki [10] | Ki [11] | Ki [12] | Ki [13] | Ki [14] | Ki [15] | Ki [16] | Ki [17] | other results
CCCN(CCC)C1CCc2cc(CS(=O)(=O)c3ccc(OC)cc3)ccc2C1 (stereo not given) [GR218231] | 1000 nM | 1000 nM | 1000 nM | 1000 nM | 1000 nM | 1000 nM | 1 nM and 1.35 nM | 79.4 nM | 158 nM | 1000 nM | 1000 nM | 398 nM | 63.1 nM and 138 nM | 1000 nM | > 10000 nM | 1000 nM | 501 nM | 
OC1(c2ccc(Cl)cc2)CCN(Cc2c[nH]c3ccccc23)CC1 [L741,626] |  |  | 631 nM | 1000 nM |  | 1000 nM | 63.1 nM and 87.1 nM | 6.31 nM |  | 1000 nM | 631 nM | 1260 nM |  | 3980 nM | 316 nM | 251 nM | 3980 nM | 
N#Cc1ccc2c(c1)[C@H]1CN(CCCCNC(=O)c3ccc(-c4ccccc4)cc3)C[C@@H]1CO2 [S33084] | 1000 nM | 79.4 nM | 1260 nM | 794 nM | 501 nM | 126 nM | 0.25 nM and 0.4 nM | 50.1 nM | 1000 nM | 1000 nM | 158 nM | 1000 nM | 52.5 nM |  | 2000 nM | 126 nM | 126 nM | Ki [18]: 1000 nM; Ki [19]: 1000 nM; Ki [20]: 1000 nM; Ki [21]: 398 nM; Ki [22]: 1000 nM
